Test results from US6468555B1, “Pesticidal compositions” (Sumitomo Chemical Company, Limited, priority 1999, dated 2002).

Columns and labels:
[1] = system: Aphis gossypii; test: Pesticidal test against Aphis gossypii on potted cabbage plants (foliar spray); type: in vivo; details: 2.0 ppm active ingredient, 20 adults set free per pot; for Number of surviving aphids per pot After 3 days: 3 days after spraying; for Number of surviving aphids per pot After 6 days: 6 days after spraying
Source text: Pesticidal Test Against Aphis gossypii
Twenty adults of Aphis gossypii were set free on three-leafed cabbage plants in pots. These plants were uniformly sprayed using a spray gun with a water dilution in a prescribed concentration of a commercial product of compound A (trade name: Lano 10EC; available from Sumitomo Chemical Co., Ltd.), a commercial product of compound B (trade name: Baroque Flowable; available from Yashima Chemical Industry Co., Ltd.), or a mixture of the commercial product of compound A and the commercial product of compound B. After air drying, the pots were placed in a greenhouse. On a predetermined day after the application, the cabbage plants were examined for the number of aphids surviving thereon.

[2] = system: Bemisia argentifolii; test: Pesticidal test against Bemisia argentifolii first-instar nymphs on cabbage seedlings (foliar spray); type: in vivo; details: 16 days after application
Source text: Pesticidal Test Against Bemisia argentifolii
Cabbage seedlings infested with first-instar nymphs of Bemisia argentifollii were uniformly sprayed using a spray gun with a water dilution in a prescribed concentration of a commercial product of compound A (trade name: Lano 10EC; available from Sumitomo Chemical Co., Ltd.), a commercial product of compound B (trade name: Baroque Flowable; available from Yashima Chemical Industry Co., Ltd.), or a mixture of the commercial product of compound A and the commercial product of compound B. After air drying, each of the cabbage seedlings was placed in a net cage and kept in a greenhouse. After 16 days from the application, the number of emergent adults was determined.

Compound	Number of surviving aphids per pot After 3 days [1]	Number of surviving aphids per pot After 6 days [1]	Number of emergent adults ([2]; 0.2 ppm, 108 nymphs used)	Number of emergent adults ([2]; 0.4 ppm, 125 nymphs used)
CC(COc1ccc(Oc2ccccc2)cc1)Oc1ccccn1 (stereo not drawn) [Compound A, 4-phenoxyphenyl 2-(2-pyridyloxy)propyl ether]	45	11	13	
CCOc1cc(C(C)(C)C)ccc1C1COC(c2c(F)cccc2F)=N1 (stereo not drawn) [Compound B, 2-(2,6-difluorophenyl)-4-(2-ethoxy-4-tert-butyl-phenyl)-2-oxazoline]	11	25		51
